# Results reported in article PMC10447463, “Data-mining unveils structure–property–activity correlation of viral infectivity enhancing self-assembling peptides” (Nature Communications, 2023).
# Like-named read-outs stand apart in the source and are kept apart here.
# Key:
# [1] = assay type: physicochemical; set-up: key to Fibril / Fibril Formation / TEM 2cat / Fibril: 1 = fibrils present; 0 non-fibrillar structures; settings: for Fibril / Fibril Formation: TEM, 1 mg/mL, uranyl acetate stain, qualitative
# [2] = system: HIV-1 infection of TZM-bl cells; experiment: HIV-1 infectivity enhancement assay, β-galactosidase luminescence; assay type: cell-based; settings: for Log10 Infection Rel EF-C: log10 of infection relative to EF-C; for Log10 Inf. rel. to EF-C: log10 of HIV-1 infection of TZM-bl cells relative to EF-C, Fig S15 source data, asymmetric std dev errors; for Absolute Infectivity / RLU /s (Feb2021): figures match the 1.3 µM column
# [3] = assay type: physicochemical; settings: for ThT Cat. / ThT-Fluorescence (categorical): ThT-active if fluorescence at least twice the control
# Summary of the method: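 Preformed peptide fibrils (1 mg/mL) mixed with 50 µM ThT in PBS, 15 min at RT, fluorescence ex 440/em 488 nm versus PBS blank, triplicates. Zeta potential: peptides at 1 mg/mL in PBS pH 7.4, aged 1 d at RT, diluted in 1 mM KCl, Smoluchowski from electrophoretic mobility.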
# [4] = n-fold infection vs virus only, relative to that of EF-C, 1.3 µM peptide
# [5] = Feb2021 run, infectivity n-fold relative to virus alone
# [6] = Feb2021 run, log10 of infectivity relative to EF-C
# [7] = Feb2021 run, n-fold infectivity relative to EF-C
# [8] = infectivity class (low / medium / high) of each library peptide, main list in c1-c6, same classes repeated in sub-lists of sequences containing the hydrophobicity/charge patterns P+,H0,P+,H0,P0,H0,P0, P+,H0,P0,H0,P0,H0,P0, P+,H0,P0,H0
# [9] = infectivity class (low / medium / high) of the peptide in the sequence-pattern analysis, Fig. S22-A4, class limits not given
# [10] = relative to blank 42.1851851851852 a.u.
# [11] = Feb2021, infectivity relative to virus only
# [12] = Feb2021, log10 of infectivity relative to EF-C
# [13] = Feb2021, n-fold infectivity relative to EF-C
# [14] = infectivity enhancement relative to EF-C (=1), Feb2021 run
# [15] = infectivity n-fold relative to virus only, Feb2021 run
# [16] = log10 of infectivity relative to EF-C, Feb2021 run
# [17] = ThT fluorescence relative to blank (42.1851851851852 a.u.)
# [18] = ThT fluorescence relative to blank, blank = 42.1851851851852
Substance,"TEM: 1= fibrils, 0= aggregates (micelle), 0.5 = aggregates and fibrils, -1 = nothing obersved, STD prep [1]","infectivity [2, 8]",Log10 Inf. rel. to EF-C [2],Tht category (> 1.5 to blank = +) ([3]; FigS26),Tht category (> 1.5 to blank = +) ([3]; category 1/0),"TEM: 1= fibrils, 0= aggregates (micelle), 0.5 = aggregates and fibrils, -1 = nothing obersved, STD prep ([1]; FigS26)",Absolute Infectivity / RLU /s (Feb2021) ([2]; Feb2021) [RLU /s],"n-fold to virus (Feb2021) [2, 11]","Log10 of Rel to EFC (Feb2021) [2, 12]","Rel-to EFC (Feb-2021) [2, 13]","Tht rel to blank (42.1851851851852) [3, 18]",also measured
CRLRVGVS,–,–,–,–,–,–,–,–,–,–,–,"Fibril / Fibril Formation [1]: 0; Inf. rel. EF-C ([2]; HIV-1 infection relative to EF-C, Fig 23 plot, panels A and B, mean of 3 values): 0.04346; Inf. rel. EF-C ([2]; HIV-1 infection relative to EF-C, Fig 23 plot, single data point, replicate 1): 0.06547; Inf. rel. EF-C ([2]; HIV-1 infection relative to EF-C, Fig 23 plot, single data point, replicate 2): 0.03045; Inf. rel. EF-C ([2]; HIV-1 infection relative to EF-C, Fig 23 plot, single data point, replicate 3): 0.03448; Log10 Infection Rel EF-C ([2]; Figure 6C): -1.362; Inf. rel. EF-C [2, 4]: 0.04; ThT Cat. / ThT-Fluorescence (categorical) [3]: 0 (ThT-inactive (N-Fold <2))"
KIKIQINMWQRGD [VH17-II],0,low,-1.917,0 (Tht category (> 1.5 to blank = +)),0 (ThT-inactive (N-Fold <2)),–,–,–,–,–,–,"n-fold to virus (Feb2021) [2, 5]: 0.5086; Log10 of Rel to EFC (Feb2021) [2, 6]: -1.917; Rel-to EFC (Feb-2021) [2, 7]: 0.0121; infectivity [2, 9]: low; Tht rel to blank (42.1851851851852) [3, 10]: 1.548"
KIKIQINMWA [JR1],–,medium,-0.1642,0 (Tht category (> 1.5 to blank = +)),–,1,–,–,–,–,–,–
KIKIQII [TG1 / (KM4)],1,low,-1.729,–,0 (ThT-inactive (N-Fold <2)),–,400,0.7843,-1.729,0.01867,1.392,"n-fold to virus (Feb2021) [2, 5]: 0.7843; Log10 of Rel to EFC (Feb2021) [2, 6]: -1.729; Rel-to EFC (Feb-2021) [2, 7]: 0.01867; infectivity [2, 9]: low; Rel-to EFC (Feb-2021) [2, 14]: 0.01867; n-fold to virus (Feb2021) [2, 15]: 0.7843; Log10 of Rel to EFC (Feb2021) [2, 16]: -1.729; Tht rel to blank (42.1851851851852) [3, 17]: 1.392; Tht rel to blank (42.1851851851852) [3, 10]: 1.392"
KIKIQINAWQ [JR3-II],–,medium,-0.2703,1 (Tht category (> 1.5 to blank = +)),–,1,–,–,–,–,–,–
KVKVKVQV [JG14 / TG14],0.5,low,-1.763,–,"1 (ThT. Cat is 1, if Rel. ThT >2)",–,466.7,0.7254,-1.763,0.01726,5.801,–
KIKIQIMQWN [VH16],–,–,-0.1454,0 (Tht category (> 1.5 to blank = +)),–,1,–,–,–,–,–,"infectivity [2, 9]: high"
RGECKFKFQF [CN16],1,medium,-0.4776,–,"1 (ThT. Cat is 1, if Rel. ThT >2)",–,7411,13.99,-0.4776,0.3329,2.392,–
CEFEFQF [KB12],0,low,-2.283,–,–,–,–,–,–,–,–,"Rel-to EFC (Feb-2021) [2, 14]: 0.003272; n-fold to virus (Feb2021) [2, 15]: 0.1375; Log10 of Rel to EFC (Feb2021) [2, 16]: -2.485; Tht rel to blank (42.1851851851852) [3, 17]: 2.788"
NMWQKFKFQF [JG11],–,medium,-0.5672,0 (Tht category (> 1.5 to blank = +)),–,1,–,–,–,–,–,–
KIKIQIII [TG7],1,medium,-0.4521,–,"1 (ThT. Cat is 1, if Rel. ThT >2)",–,8260,14.84,-0.452,0.3531,2.287,"n-fold to virus (Feb2021) [2, 5]: 14.84; Log10 of Rel to EFC (Feb2021) [2, 6]: -0.452; Rel-to EFC (Feb-2021) [2, 7]: 0.3531; Rel-to EFC (Feb-2021) [2, 14]: 0.3531; n-fold to virus (Feb2021) [2, 15]: 14.84; Log10 of Rel to EFC (Feb2021) [2, 16]: -0.452; Tht rel to blank (42.1851851851852) [3, 17]: 2.287; Tht rel to blank (42.1851851851852) [3, 10]: 2.287"
KVKVQVV [TG2],0.5,low,-2.04,–,0 (ThT-inactive (N-Fold <2)),–,213.3,0.3832,-2.04,0.009121,1.263,"infectivity [2, 9]: low; Rel-to EFC (Feb-2021) [2, 14]: 0.009121; n-fold to virus (Feb2021) [2, 15]: 0.3832; Log10 of Rel to EFC (Feb2021) [2, 16]: -2.04; Tht rel to blank (42.1851851851852) [3, 17]: 1.263"
KIKIKIKIWWWW [TM12],0,medium,-0.2301,–,"1 (ThT. Cat is 1, if Rel. ThT >2)",–,–,–,–,–,–,"n-fold to virus (Feb2021) [2, 5]: 24.74; Log10 of Rel to EFC (Feb2021) [2, 6]: -0.2301; Rel-to EFC (Feb-2021) [2, 7]: 0.5888; Tht rel to blank (42.1851851851852) [3, 10]: 2.303"
KYKYQY [KB1],0,low,-1.9887,–,"1 (ThT. Cat is 1, if Rel. ThT >2)",–,230,0.4313,-1.989,0.01026,6.106,–
RGDKIKIQINMWQ [MG9a],0.5,high,-0.1175,0 (Tht category (> 1.5 to blank = +)),0 (ThT-inactive (N-Fold <2)),–,–,–,–,–,–,"Log10 of Rel to EFC (Feb2021) ([2]; Feb2021, Log10 of infectivity relative to EF-C): -0.1175; Rel-to EFC (Feb-2021) ([2]; Feb2021, n-fold enhancement relative to EF-C): 0.763; n-fold to virus (Feb2021) [2, 5]: 32.06; Log10 of Rel to EFC (Feb2021) [2, 6]: -0.1175; Rel-to EFC (Feb-2021) [2, 7]: 0.763; infectivity [2, 9]: high; Tht rel to blank (42.1851851851852) [3, 17]: 1.781; Tht rel to blank (42.1851851851852) [3, 10]: 1.781"
CKIKIQIRGD [psis21],–,medium,-0.4842,0 (Tht category (> 1.5 to blank = +)),–,1,–,–,–,–,–,–
RQGNINIVA [reference compound],–,–,–,–,–,–,–,–,–,–,–,"Fibril / Fibril Formation [1]: 1; infectivity enhancement, in words ([2]; fibril-forming peptides with positive zeta-potential, low count rate): do not enhance infectivity; Log10 Infection Rel EF-C ([2]; Figure 7B): -0.93; Inf. rel. EF-C [2, 4]: 0.12; ThT Cat. / ThT-Fluorescence (categorical) [3]: 1 (ThT. Cat is 1, if Rel. ThT >2)"
KLVFFAK [reference compound],–,–,–,–,–,–,–,–,–,–,–,"Fibril / Fibril Formation [1]: 1; Log10 Infection Rel EF-C ([2]; Figure 7B): -1.15; Inf. rel. EF-C [2, 4]: 0.07; ThT Cat. / ThT-Fluorescence (categorical) [3]: 0 (ThT-inactive (N-Fold <2))"
CKIWIQIY,–,–,–,–,–,–,–,–,–,–,–,"Fibril / Fibril Formation [1]: 1; Log10 Infection Rel EF-C ([2]; Figure 6C): -0.2415; Inf. rel. EF-C [2, 4]: 0.57; ThT Cat. / ThT-Fluorescence (categorical) [3]: 1 (ThT. Cat is 1, if Rel. ThT >2)"
KIKIQIAMWQ [JR4],–,medium,-0.4109,1 (Tht category (> 1.5 to blank = +)),–,1,–,–,–,–,–,–
HLHLPLL [CN14],0.5,low,-1.9991,–,0 (ThT-inactive (N-Fold <2)),–,133.3,0.4211,-1.999,0.01002,1.069,–
NMWQKIKIQI [JG9],–,medium,-0.6877,1 (Tht category (> 1.5 to blank = +)),–,1,–,–,–,–,–,–
CRFRFHFH,–,–,–,–,–,–,–,–,–,–,–,"Fibril / Fibril Formation [1]: 1; Log10 Infection Rel EF-C ([2]; Figure 6C): -0.2767; Inf. rel. EF-C [2, 4]: 0.53; ThT Cat. / ThT-Fluorescence (categorical) [3]: 0 (ThT-inactive (N-Fold <2))"
